Measured values as given in paper PMC8864869, “A short peptide derived from pigment epithelial-derived factor exhibits an angioinhibitory effect” (BMC Ophthalmology, 2022).
Several values for one entry are separate records, joined by “and”; a condition that tells them apart may be missing. Identical values can stand only once.

Tests used:
Assay type in all cases: cell-based, human
RPMI8226 cells [1] = tested on: RPMI8226 cells
Protocol: Human multiple myeloma cells, RPMI8226 were purchased from Bioresource Collection and Research Center (Hsinchu, Taiwan). Cells were cultivated in RPMI1640 medium supplemented with 10% FBS, 50 μg/ml penicillin, 50 μg/ml streptomycin, and 2 mM L-glutamine at 37 °C in a 5% CO2 atmosphere. Cell viability was determined by an MTT assay. […] MTT stock solution added to medium alone was included as a negative control. Aliquots (450 μl) from each sample were transferred to a new well of a 48-well culture plate, 100 μl DMSO added with thorough mixing, and allowed to react at 37 °C for 20 min before reading the absorbance at 570 nm.

RPMI8226 cells [2] = assay: Annexin V-FITC/PI double-staining apoptosis assay in RPMI8226 cells; conditions: 10 ng/ml VEGF + 25 μM peptide, 24 h, serum-free; early + late apoptosis; mean ± SD, three independent experiments
Protocol: (§1) Cell apoptosis was examined using a TACS annexin V-FITC kit according to the manufacturer’s instructions for in situ staining. The cell numbers were monitored by counterstaining with Hoechst 33342. Afterward, apoptosis was examined and photographed by a Zeiss epifluorescence microscope (× 100, 10 fields/sample). Images were recorded on Zeiss software.
Fig. 2 The 34-mer and 7-mer induce apoptosis of RPMI8226 cells. a Fluorescence microscopy of annexin V-FITC/PI double staining. Treatment of RPMI8226 cells was as described in Fig. 1. Apoptosis was determined by annexin V-FITC staining (green dots) and double stained with propidium iodide (red dots). A representative of three independent experiments is shown. b The percentage of apoptotic cells was quantified by dividing the number of annexin V-positive cells by the total number of cells counted by phase-contrast light microscopy. Control peptide indicates cells were treated with the 5-mer. Histograms show means ± SD. ^aP < 0.005 versus peptide solvent-treated cells. ^bP < 0.0002 versus VEGF-treated cells. ^cP < 0.001 versus 34-mer-treated cells
(§2) Fig. 3 The 7-mer induces JNK signaling to trigger RPMI8226 cell apoptosis. 3 × 10^5 cells were serum starved for 24 h and then exposed to 10 ng/ml VEGF and 25 μM 7-mer for the indicated time periods. a Western blotting was performed to detect the active phosphorylated forms of JNK (p-JNK) and p38 MAPK (p-p38), shown in the upper panels. Antibodies were then stripped and the blots were re-incubated with anti-JNK and anti-p38 MAPK antibodies (lower panels), respectively, to detect the levels of total JNK and p38 MAPK. b Densitometric analyses from three independent experiments are shown. c Cell were pretreated with 10 μM SP600125 or SB203580 for 10 min and then treated as described above for 24 h and apoptosis was quantified using the annexin V-FITC apoptosis detection kit. *P < 0.0001 versus 7-mer-treated cells

JNK = assay: Western blot of phosphorylated JNK in RPMI8226 cells; conditions: 10 ng/ml VEGF + 25 μM 7-mer
Description: (§3) Cell lysis and SDS–PAGE were as described previously. Antibodies used in this study were for active p38 MAPK and active JNK (Promega, Madison, WI), p38 MAPK/SAPK2, JNK (Upstate Biotechnology, Lake Placid, NY), p53 (Chemicon, Temecula, CA), bax, p21, cleaved caspase-3 and β-actin (Abcam Ltd., Cambridge, UK). Proteins of interest were detected using the appropriate IgG-horseradish peroxidase-linked secondary antibody (Santa Cruz Biotechnology) and enhanced chemiluminescence reagent (Amersham, Arlington Heights, IL). X-ray films were scanned on a model GS-700 Imaging Densitometer (Bio-Rad, Hercules, CA) and analyzed with Labworks 4.0 software. For quantification, blots from at least three independent experiments were used.
as §2

p38 MAPK = assay: Western blot of phosphorylated p38 MAPK in RPMI8226 cells; conditions: 10 ng/ml VEGF + 25 μM 7-mer, time course
Description: as §3
as §2, with “3 × 10^5 cells were serum starved for 24 h and then exposed to 10 ng/ml VEGF and 25 μM 7-mer for the indicated time periods. a Western blotting was performed to detect the active phosphorylated forms of JNK (p-JNK) and p38 MAPK (p-p38), shown in the upper panels.” left out

HUVECs [3] = assay: Endothelial cell capillary-like tube formation assay; conditions: 20 ng/ml VEGF, 10 μM 7-mer, matrigel, 0.5% FBS, 6 h
Protocol: (§4) Cells were grown in Medium 200 with LSGS (supplement contains 1.9% fetal bovine serum, 3 ng/ml bFGF, 10 μg/ml heparin, 1 μg/ml hydrocortisone, and 10 ng/ml EGF). Culture plates were coated with 2% gelatin. Cells (passages 4–8) were cultured at 37 °C in a humidified atmosphere of 5% CO2. For peptide treatment, HUVECs were cultured in low serum (0.5% FBS) medium containing 20 ng/ml VEGF and 7-mer peptide (20 μM, unless otherwise specified).
Growth factor-reduced matrigel was pipetted into pre-chilled 24-well plates (150 μl matrigel per well) and polymerized for 45 min at 37 °C. HUVECs (4 × 10^4 per well) in low serum (0.5% FBS) medium were treated with 20 ng/ml VEGF and 7-mer (10 μM) in matrigel coated plates. After 6 h of incubation, tubular structures were photographed. Images were captured using a Cannon camera on a Zeiss inverted microscope with magnification × 40.
The experiment was repeated three times. Magnification is × 40. b The 7-mer induces HUVEC apoptosis in the presence of VEGF. Cell apoptosis was analyzed using the Annexin V-FITC Apoptosis Detection kit according to the in situ staining protocol after treatment for 16 h. Double staining with an annexin V-FITC and the fluorescent dye Hoechst 33342 was used to visualize the apoptotic cells (green) and nuclei (blue), respectively. […] The percentages of apoptotic cells were quantified. ^aP < 0.005 versus VEGF-treated cells

HUVECs [4] = assay: Annexin V-FITC apoptosis assay in HUVECs; conditions: 20 ng/ml VEGF + peptide (20 μM), 0.5% FBS, 16 h; four independent experiments
Protocol: as §4, §1
The experiment was repeated three times. Magnification is × 40. b The 7-mer induces HUVEC apoptosis in the presence of VEGF. Cell apoptosis was analyzed using the Annexin V-FITC Apoptosis Detection kit according to the in situ staining protocol after treatment for 16 h. Double staining with an annexin V-FITC and the fluorescent dye Hoechst 33342 was used to visualize the apoptotic cells (green) and nuclei (blue), respectively. A representative result of four independent experiments is shown. The percentages of apoptotic cells were quantified. ^aP < 0.005 versus VEGF-treated cells

Substance: 7-mer: PEDF Asp64-Ser70, N-acetylated, C-amidated (Ac-DLYRVRS-NH2; UniProt P36955 64-70, looked up, fragment)
- cytotoxic effect on RPMI8226 cells in the absence of VEGF (RPMI8226 cells [1]): neither peptide had a significant cytotoxic effect
- MTT value, VEGF-induced RPMI8226 cell proliferation, 1 μM peptide (RPMI8226 cells [1]; 10 ng/ml VEGF + 1 μM peptide (lowest concentration), 24 h, mean ± SD): 101 ± 1.2%
- anti-VEGF activity of the 7-mer relative to the 34-mer (MTT) (RPMI8226 cells [1]; 10 ng/ml VEGF + 25 μM peptide, 24 h): ~ 1.5 fold
- MTT value, VEGF-induced RPMI8226 cell proliferation (RPMI8226 cells [1]; 10 ng/ml VEGF + 25 μM peptide, 24 h, serum-free medium, solvent-treated/untreated cells set as 100%, mean ± SD, three independent experiments): 58 ± 4.1% and 57.3% and 54 ± 1.5%
- dose dependence of cell viability of VEGF-treated RPMI8226 cells (RPMI8226 cells [1]; 1, 5, 10 and 25 μM peptide with VEGF, MTT): decreased cell viability in a dose-dependent manner
- apoptotic (annexin V+) RPMI8226 cells (RPMI8226 cells [2]): 38.6 ± 2.1%
- time for which JNK phosphorylation was sustained (JNK): up to 10 h
- time of peak p-p46 JNK (JNK): 2 h
- p-p46 JNK phosphorylation (JNK; time course): increase in p-p46 JNK was detected 20 min after 7-mer treatment
- p38 MAPK phosphorylation (p38 MAPK): no significant effect on p38 MAPK phosphorylation
- VEGF-stimulated tube-like network of HUVECs (HUVECs [3]): marked decrease of the VEGF-stimulated tube-like network
- apoptotic HUVECs (annexin V-FITC) (HUVECs [4]): 43.0 ± 5.5%
